Target: Carbonic anhydrase 2 (Homo sapiens, UniProt P00918)
Test: Then 30 μL of 16 nM hCA II solution was added (8 nM final concentration), mixed five times. 30 μL of 4-NPA substrate solution was added (2.5 mM final concentration), mixed five times.

IC50: 6 nM
SMILES: NS(=O)(=O)c1ccc(C(=O)N2C[C@H]3CN(C(=O)/C=C/c4ccc(OC(F)(F)F)cc4)C[C@]3(F)C2)c(F)c1 (relative stereo)
